From publication PMC3469748 (Molecular and cellular biochemistry, 2012) come the findings set out here.

Experiment [1] addresses T1, thioredoxin reductase 1 (TrxR) (Rattus norvegicus, UniProt O89049).
T1 sequence (O89049 1-499): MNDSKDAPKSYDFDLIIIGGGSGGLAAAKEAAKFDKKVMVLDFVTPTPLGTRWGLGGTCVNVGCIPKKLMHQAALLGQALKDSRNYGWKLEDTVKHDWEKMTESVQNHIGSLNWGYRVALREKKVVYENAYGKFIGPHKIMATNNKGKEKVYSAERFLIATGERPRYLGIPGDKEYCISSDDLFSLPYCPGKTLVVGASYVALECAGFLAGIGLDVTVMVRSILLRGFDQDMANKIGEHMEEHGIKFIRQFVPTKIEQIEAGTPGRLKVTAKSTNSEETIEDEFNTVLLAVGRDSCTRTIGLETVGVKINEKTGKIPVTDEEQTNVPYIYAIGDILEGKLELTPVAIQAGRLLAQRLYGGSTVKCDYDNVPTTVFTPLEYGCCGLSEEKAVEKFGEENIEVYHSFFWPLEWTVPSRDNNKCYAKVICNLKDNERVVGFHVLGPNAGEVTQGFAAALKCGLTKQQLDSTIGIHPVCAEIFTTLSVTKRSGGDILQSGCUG
Description: DTNB reduction assay.

Experiment [2] addresses T1, thioredoxin reductase 1 (TrxR). Description: biochemical.

What is called IC50 is the concentration needed to halve the response being measured. Higher therefore signals weaker potency. For the compound `CNC(=O)N(NS(C)(=O)=O)S(C)(=O)=O` [101MDCE], the IC50 in experiment [1] worked out at 5.37 ± 0.58 µM.

For `CNC(=O)N(N(CCCl)S(C)(=O)=O)S(C)(=O)=O` [Laromustine, 1,2-bis(methylsulfonyl)-1-(2-chloroethyl)-2-[(methylamino)carbonyl]hydrazine], the IC50 in experiment [1] came out at 4.65 ± 0.37 µM. In the case of `O=NN(CCCl)C(=O)NCCCl` [Carmustine, 1,3-bis(2-chloroethyl)-1-nitrosourea], in experiment [2], the midpoint of inhibition, the IC50, lay at 7.63 ± 0.72 µM.
